Publication PMC5728534 (PLoS ONE, 2017)
Positions count from the first letter of the chain named. Entries after “also recorded” stand apart in the source; their conditions may differ. Where two headings read alike, the source gives them in different places.

Columns and labels:
OCT1*1B = biological target: T1, OCT1*1B (Homo sapiens, UniProt O15245, L160F); details: for Vmax (±SEM): OCT1*1B reference allele, 10-600 μM ranitidine, control-cell uptake subtracted
T1 sequence (O15245 1-554 L160F): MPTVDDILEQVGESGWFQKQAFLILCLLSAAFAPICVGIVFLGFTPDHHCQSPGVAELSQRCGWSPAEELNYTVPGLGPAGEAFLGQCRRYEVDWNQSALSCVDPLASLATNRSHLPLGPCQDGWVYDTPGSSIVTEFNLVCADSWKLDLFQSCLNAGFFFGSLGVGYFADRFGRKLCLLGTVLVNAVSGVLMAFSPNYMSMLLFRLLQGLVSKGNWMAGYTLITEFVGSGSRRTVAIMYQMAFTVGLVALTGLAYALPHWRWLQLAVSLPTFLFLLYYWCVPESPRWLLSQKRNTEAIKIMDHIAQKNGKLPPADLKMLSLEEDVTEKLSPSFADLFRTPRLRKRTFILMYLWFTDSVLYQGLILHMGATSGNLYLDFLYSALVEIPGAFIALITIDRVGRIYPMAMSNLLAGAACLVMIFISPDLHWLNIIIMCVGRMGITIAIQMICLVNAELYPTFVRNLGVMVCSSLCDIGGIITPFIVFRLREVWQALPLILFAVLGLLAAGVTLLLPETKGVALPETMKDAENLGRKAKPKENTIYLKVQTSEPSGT
Source text: (§1) HEK293 or CHO cells overexpressing the human OCT1 alleles *1A (characterized by the amino acid substitution Met408Val), *1B, *1C (Phe160Leu), *1D (Pro341Leu/Met408Val), *2 (Met420del), *3 (Arg61Cys), *4 (Gly401Ser), *5 (Gly465Arg/Met420del), *6 (Cys88Arg/Met420del), *7 (Ser14Phe), *8A (Arg488Met), *8B (Arg488Met/Met408Val), *9 (Pro117Leu), *10 (Ser189Leu), *11 (Ile449Thr), *12 (Ser29Leu), or *13 (Thr245Met), the human OCT2 reference and variant alleles (Ala270Ser), human OCT3, and the control cells (transfected with the empty pcDNA5 vector) were generated by targeted chromosomal integration using the Flp-In™ System (Life Technologies, Darmstadt, Germany).
Six hundred thousand HEK293 or CHO cells were plated per well in 12-well plates (pre-coated with poly-D-lysine) and were grown for 48 hours to reach confluence. Cells were kept at 37°C and 5% CO2 in DMEM (HEK293) or RPMI (CHO), supplemented with 10% FCS, 100 U/ml penicillin, and 100 μg/ml streptomycin. Uptake experiments were performed at pH 7.4 using HBSS supplemented with 10 mM HEPES buffer (herein referred to as HBSS+). Cells were washed once with 1 ml pre-warmed HBSS+ buffer (37°C). […] Cells were washed twice with 2 ml ice-cold HBSS+ and lysed in 500 μl lysis buffer.
(§2) For all transport measurements, the intracellular amount of substrate was normalized to the total amount of protein of the sample as measured using the bicinchoninic acid assay [49].
For quantification of intracellular substrates, the cell debris were removed by centrifugation at 17,000 x g for 10 min. Four-hundred μl of the supernatant was evaporated to dryness under nitrogen flow at 40°C. The residue was reconstituted in 200 μl 0.1% formic acid and 10 μl were injected into the LC-MS/MS. For the LC-MS/MS analysis an API 4000™ system tandem mass spectrometer (AB SCIEX, Darmstadt, Germany) was used. Samples were separated using a Brownlee SPP RP-Amide Column (4.6x100 mm, 2.7 μm; PerkinElmer), with a SecurityGuard C18, 4x2 mm pre-column (Phenomenex, Aschaffenburg, Germany).
Nonlinear regression to the Michaelis-Menten equation was performed to determine Km and vmax using GraphPad Prism version 6 (GraphPad Software Inc., La Jolla, CA, USA). Nonlinear regression to the Hill equation v = vmin+(vmax-vmin)/1+([I]/IC50)^-Hillslope was performed to determine IC50 using SigmaPlot version 12.0 (Systat Software, San Jose, California, USA).

OCT1*2 (Met420del) = biological target: T2, OCT1*2 (Met420del) (Homo sapiens, UniProt O15245, DEL420-420/L160F)
T2 sequence (O15245 with tags, fused parts or gaps L160F/DEL420-420): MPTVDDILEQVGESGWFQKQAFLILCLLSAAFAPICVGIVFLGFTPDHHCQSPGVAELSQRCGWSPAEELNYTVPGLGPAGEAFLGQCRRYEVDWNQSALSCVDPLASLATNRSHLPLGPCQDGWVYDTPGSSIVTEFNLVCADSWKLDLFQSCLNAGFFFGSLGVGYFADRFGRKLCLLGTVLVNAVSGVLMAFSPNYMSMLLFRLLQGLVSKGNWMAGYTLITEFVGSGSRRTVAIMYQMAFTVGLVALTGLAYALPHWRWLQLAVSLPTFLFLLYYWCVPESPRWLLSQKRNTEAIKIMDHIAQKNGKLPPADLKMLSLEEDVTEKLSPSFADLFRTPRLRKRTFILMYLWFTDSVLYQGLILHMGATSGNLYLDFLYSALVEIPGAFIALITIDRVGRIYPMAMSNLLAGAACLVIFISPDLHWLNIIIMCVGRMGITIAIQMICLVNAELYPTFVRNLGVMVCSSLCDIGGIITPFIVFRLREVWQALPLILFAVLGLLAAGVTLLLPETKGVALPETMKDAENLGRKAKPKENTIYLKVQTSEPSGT
Source text: as §1
(§3) Six hundred thousand HEK293 or CHO cells were plated per well in 12-well plates (pre-coated with poly-D-lysine) and were grown for 48 hours to reach confluence. Cells were kept at 37°C and 5% CO2 in DMEM (HEK293) or RPMI (CHO), supplemented with 10% FCS, 100 U/ml penicillin, and 100 μg/ml streptomycin. Uptake experiments were performed at pH 7.4 using HBSS supplemented with 10 mM HEPES buffer (herein referred to as HBSS+). […]
as §2
(§4) For quantification of intracellular substrates, the cell debris were removed by centrifugation at 17,000 x g for 10 min. […]

[1] = biological target: T3, OCT1*6 (Cys88Arg/Met420del) (Homo sapiens, UniProt O15245, C88R/DEL420-420/L160F); assay: Ranitidine uptake in HEK293 cells overexpressing OCT1*6; format: in vitro ADME; details: 1 μM and 10 μM ranitidine, 2 min
T3 construct: expressed in transfected cells; host or cells: HEK293 T-REx (Flp-In)
T3 sequence (O15245 with tags, fused parts or gaps C88R/L160F/DEL420-420): T2 sequence (O15245 with tags, fused parts or gaps L160F/DEL420-420) with C88R
Source text: as §1, §3, §2, §4

OCT2 Ser270 (Ala270Ser) = biological target: T4, OCT2 Ser270 (Ala270Ser) (Homo sapiens, UniProt O15244); assay: Ranitidine uptake in HEK293 cells overexpressing OCT2 variant (Ser270); format: in vitro ADME; details: 1 μM ranitidine, 2 min, not significant
T4 sequence (O15244 1-555): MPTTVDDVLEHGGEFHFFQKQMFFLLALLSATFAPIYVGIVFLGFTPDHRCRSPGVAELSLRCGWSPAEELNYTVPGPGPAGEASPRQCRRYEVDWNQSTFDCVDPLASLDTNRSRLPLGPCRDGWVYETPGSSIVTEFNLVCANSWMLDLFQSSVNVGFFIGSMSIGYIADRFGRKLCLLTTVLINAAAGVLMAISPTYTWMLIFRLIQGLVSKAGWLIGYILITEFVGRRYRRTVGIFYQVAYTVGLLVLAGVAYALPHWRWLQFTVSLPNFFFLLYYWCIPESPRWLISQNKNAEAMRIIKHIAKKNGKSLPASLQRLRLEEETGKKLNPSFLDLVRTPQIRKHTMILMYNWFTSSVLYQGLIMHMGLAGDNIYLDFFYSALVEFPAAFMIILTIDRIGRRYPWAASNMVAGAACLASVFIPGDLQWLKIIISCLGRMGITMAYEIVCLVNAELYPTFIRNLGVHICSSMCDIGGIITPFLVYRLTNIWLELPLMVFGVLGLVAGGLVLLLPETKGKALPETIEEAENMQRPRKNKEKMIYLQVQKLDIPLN
Source text: as §1, §3, §2, §4

CNC(=C[N+](=O)[O-])NCCSCc1ccc(CN(C)C)o1 [ranitidine, Ranitidine]
ranitidine uptake, OCT1-overexpressing compared to control cells (OCT1*1B; 1 μM ranitidine, 2 min, HEK293): 7.8 fold
intracellular concentration of ranitidine, OCT1-overexpressing cells compared to control cells (OCT1*1B; 1 μM ranitidine, after 1 min of incubation, HEK293): 8.5 fold
Vmax (±SEM) (OCT1*1B; HEK293, 2 min): 1125 ± 86.1 pmol x min^-1 x mg protein^-1
Vmax (±SEM) (OCT1*1B; HEK293, 2 min, listed as Ranitidine): 1125 pmol x min^-1 x mg protein^-1
vmax (OCT1*1B; wild-type OCT1 (abstract)): 1125 pmol/min/mg protein
decrease of vmax compared to the reference allele (OCT1*2 (Met420del); OCT1*2): more than 50%
Vmax (±SEM) (OCT1*2 (Met420del); OCT1*2 Met420del, HEK293, 10-600 μM ranitidine, 2 min): 402.04 (±51.24) pmol x min^-1 x mg protein^-1
ranitidine transport activity [1]: completely lacked ranitidine uptake; also recorded: complete lack of ranitidine transport activity
reduction of ranitidine uptake, Ser270 allele in comparison to the Ala270 allele (OCT2 Ser270 (Ala270Ser)): 9%
